“And” between values parts separate entries of the source, which are not always exact repeats. Equal values may be shown once. Marks after values point to notes of the source that are not given here.
Tested on: male rats
Experiment: 28-day repeated dose study, plasma metabolite profiling (GC-MS, LC-MS), male rats
Format: in vivo, rat
Description: Drinking water was also offered ad libitum.

3-Hydroxybutyrate, plasma, treatment ratio versus control (day 7): 0.24* and 0.21*
3-O-Methylsphingosine (d18:1), plasma, treatment ratio versus control (day 7): 0.22
5-O-Methylsphingosine (d18:1), plasma, treatment ratio versus control (day 7): 0.19
5-Oxoproline, plasma, treatment ratio versus control (day 7): 0.65*
Arginine, plasma, treatment ratio versus control (day 7): 1.37*
Campesterol, plasma, treatment ratio versus control (day 7): 0.24*
Ceramide (d18:1,C24:0), plasma, treatment ratio versus control (day 7): 0.59*
Ceramide (d18:1,C24:1), plasma, treatment ratio versus control (day 7): 0.47*
Cholesterol, plasma, treatment ratio versus control (day 7): 0.3
Choline plasmalogen No 03, plasma, treatment ratio versus control (day 7): 0.51*
Coenzyme Q9, plasma, treatment ratio versus control (day 7): 0.21*
Coenzyme Q10, plasma, treatment ratio versus control (day 7): 0.33*
Glutamate, plasma, treatment ratio versus control (day 7): 0.72
Glutamine, plasma, treatment ratio versus control (day 7): 0.65*
Histidine, plasma, treatment ratio versus control (day 7): 1.21*
Homovanillic acid (HVA), plasma, treatment ratio versus control (day 7): 0.21*
Isopalmitic acid (C16:0), plasma, treatment ratio versus control (day 7): 0.46*
Lignoceric acid (C24:0), plasma, treatment ratio versus control (day 7): 0.36
Linoleic acid (C18:cis[9,12]2), plasma, treatment ratio versus control (day 7): 0.44*
Lysine, plasma, treatment ratio versus control (day 7): 6.14*
Myristic acid (C14:0), plasma, treatment ratio versus control (day 7): 0.54
Oleic acid (C18:cis[9]1), plasma, treatment ratio versus control (day 7): 0.87
Palmitic acid (C16:0), plasma, treatment ratio versus control (day 7): 0.42*
Palmitoleic acid (C16:cis[9]1), plasma, treatment ratio versus control (day 7): 0.66
Phosphatidylcholine (C16:0,C18:2), plasma, treatment ratio versus control (day 7): 0.89*
Phosphatidylcholine (C18:1,C18:2), plasma, treatment ratio versus control (day 7): 0.74*
Serine, plasma, treatment ratio versus control (day 7): 1.36*
Sphingomyelin (d18:1,C16:0), plasma, treatment ratio versus control (day 7): 0.84*
Sphingomyelin (d18:1,C24:0), plasma, treatment ratio versus control (day 7): 0.52*
Sphingomyelin (d18:2,C16:0), plasma, treatment ratio versus control (day 7): 0.58*
Stearic acid (C18:0), plasma, treatment ratio versus control (day 7): 0.34*
TAG (C16:0,C16:1), plasma, treatment ratio versus control (day 7): 0.47
Threonine, plasma, treatment ratio versus control (day 7): 1.46*
alpha-Tocopherol, plasma, treatment ratio versus control (day 7): 0.52*
beta-Sitosterol, plasma, treatment ratio versus control (day 7): 0.43*
erythro-Sphingosine, plasma, treatment ratio versus control (day 7): 0.21
threo-Sphingosine, plasma, treatment ratio versus control (day 7): 0.25
Lysophosphatidylcholine (C20:4), plasma, treatment ratio versus control (day 7, first listing in Table 3): 0.87*
Lysophosphatidylcholine (C20:4), plasma, treatment ratio versus control (day 7, second listing in Table 3): 0.67*
3-Hydroxybutyrate, plasma, treatment ratio versus control (day 14): 0.29* and 0.2*
3-O-Methylsphingosine (d18:1), plasma, treatment ratio versus control (day 14): 0.45*
5-O-Methylsphingosine (d18:1), plasma, treatment ratio versus control (day 14): 0.48*
Arginine, plasma, treatment ratio versus control (day 14): 1.59*
Campesterol, plasma, treatment ratio versus control (day 14): 0.43*
Ceramide (d18:1,C24:0), plasma, treatment ratio versus control (day 14): 0.59*
Ceramide (d18:1,C24:1), plasma, treatment ratio versus control (day 14): 0.38*
Cholesterol, plasma, treatment ratio versus control (day 14): 0.47*
Choline plasmalogen No 03, plasma, treatment ratio versus control (day 14): 0.66*
Coenzyme Q9, plasma, treatment ratio versus control (day 14): 0.27*
Coenzyme Q10, plasma, treatment ratio versus control (day 14): 0.24*
Dodecanol, plasma, treatment ratio versus control (day 14): 0.75*
Glutamate, plasma, treatment ratio versus control (day 14): 0.93
Glutamine, plasma, treatment ratio versus control (day 14): 0.8
Histidine, plasma, treatment ratio versus control (day 14): 1.37*
Homovanillic acid (HVA), plasma, treatment ratio versus control (day 14): 0.47*
Isopalmitic acid (C16:0), plasma, treatment ratio versus control (day 14): 0.49*
Lignoceric acid (C24:0), plasma, treatment ratio versus control (day 14): 0.52*
Linoleic acid (C18:cis[9,12]2), plasma, treatment ratio versus control (day 14): 0.57*
Lysine, plasma, treatment ratio versus control (day 14): 6.55*
Myristic acid (C14:0), plasma, treatment ratio versus control (day 14): 0.59*
Oleic acid (C18:cis[9]1), plasma, treatment ratio versus control (day 14): 1.01
Palmitic acid (C16:0), plasma, treatment ratio versus control (day 14): 0.56*
Palmitoleic acid (C16:cis[9]1), plasma, treatment ratio versus control (day 14): 0.55*
Phosphatidylcholine (C16:0,C18:2), plasma, treatment ratio versus control (day 14): 0.93*
Phosphatidylcholine (C18:1,C18:2), plasma, treatment ratio versus control (day 14): 0.79*
Serine, plasma, treatment ratio versus control (day 14): 1.54*
Sphingomyelin (d18:1,C16:0), plasma, treatment ratio versus control (day 14): 0.88*
Sphingomyelin (d18:1,C24:0), plasma, treatment ratio versus control (day 14): 0.62*
Sphingomyelin (d18:2,C16:0), plasma, treatment ratio versus control (day 14): 0.53*
Stearic acid (C18:0), plasma, treatment ratio versus control (day 14): 0.51*
TAG (C16:0,C16:1), plasma, treatment ratio versus control (day 14): 0.67*
Threonine, plasma, treatment ratio versus control (day 14): 1.74*
alpha-Tocopherol, plasma, treatment ratio versus control (day 14): 0.56*
beta-Sitosterol, plasma, treatment ratio versus control (day 14): 0.57*
erythro-Sphingosine, plasma, treatment ratio versus control (day 14): 0.51*
threo-Sphingosine, plasma, treatment ratio versus control (day 14): 0.5*
Lysophosphatidylcholine (C20:4), plasma, treatment ratio versus control (day 14, first listing in Table 3): 0.95*
Lysophosphatidylcholine (C20:4), plasma, treatment ratio versus control (day 14, second listing in Table 3): 0.61*
3-Hydroxybutyrate, plasma, treatment ratio versus control (day 28): 0.52* and 0.49*
3-O-Methylsphingosine (d18:1), plasma, treatment ratio versus control (day 28): 0.48*
5-O-Methylsphingosine (d18:1), plasma, treatment ratio versus control (day 28): 0.48*
5-Oxoproline, plasma, treatment ratio versus control (day 28): 0.74*
Arginine, plasma, treatment ratio versus control (day 28): 1.76*
Campesterol, plasma, treatment ratio versus control (day 28): 0.35*
Ceramide (d18:1,C24:0), plasma, treatment ratio versus control (day 28): 0.44*
Ceramide (d18:1,C24:1), plasma, treatment ratio versus control (day 28): 0.38*
Cholesterol, plasma, treatment ratio versus control (day 28): 0.49*
Choline plasmalogen No 03, plasma, treatment ratio versus control (day 28): 0.6*
Coenzyme Q9, plasma, treatment ratio versus control (day 28): 0.31*
Coenzyme Q10, plasma, treatment ratio versus control (day 28): 0.37*
Glutamate, plasma, treatment ratio versus control (day 28): 0.82*
Glutamine, plasma, treatment ratio versus control (day 28): 0.81*
Histidine, plasma, treatment ratio versus control (day 28): 1.56*
Homovanillic acid (HVA), plasma, treatment ratio versus control (day 28): 0.26*
Isopalmitic acid (C16:0), plasma, treatment ratio versus control (day 28): 0.34*
Lignoceric acid (C24:0), plasma, treatment ratio versus control (day 28): 0.6*
Linoleic acid (C18:cis[9,12]2), plasma, treatment ratio versus control (day 28): 0.38*
Lysine, plasma, treatment ratio versus control (day 28): 8.13*
Myristic acid (C14:0), plasma, treatment ratio versus control (day 28): 0.53*
Oleic acid (C18:cis[9]1), plasma, treatment ratio versus control (day 28): 0.81*
Palmitic acid (C16:0), plasma, treatment ratio versus control (day 28): 0.48*
Palmitoleic acid (C16:cis[9]1), plasma, treatment ratio versus control (day 28): 0.37*
Phosphatidylcholine (C16:0,C18:2), plasma, treatment ratio versus control (day 28): 0.92*
Phosphatidylcholine (C18:1,C18:2), plasma, treatment ratio versus control (day 28): 0.83*
Serine, plasma, treatment ratio versus control (day 28): 1.7*
Sphingomyelin (d18:1,C16:0), plasma, treatment ratio versus control (day 28): 0.79*
Sphingomyelin (d18:1,C24:0), plasma, treatment ratio versus control (day 28): 0.64*
Sphingomyelin (d18:2,C16:0), plasma, treatment ratio versus control (day 28): 0.55*
Stearic acid (C18:0), plasma, treatment ratio versus control (day 28): 0.55*
TAG (C16:0,C16:1), plasma, treatment ratio versus control (day 28): 0.66*
Threonine, plasma, treatment ratio versus control (day 28): 2.15*
beta-Sitosterol, plasma, treatment ratio versus control (day 28): 0.55*
erythro-Sphingosine, plasma, treatment ratio versus control (day 28): 0.51*
threo-Sphingosine, plasma, treatment ratio versus control (day 28): 0.51*
Lysophosphatidylcholine (C20:4), plasma, treatment ratio versus control (day 28, first listing in Table 3): 0.94*
Lysophosphatidylcholine (C20:4), plasma, treatment ratio versus control (day 28, second listing in Table 3): 0.5*
Structure (SMILES): CC(C=O)Cc1ccc(C(C)(C)C)cc1 (centres unmarked) [Lysmeral, 2-Methyl-3(4-tert.-butylphenyl)-propanal]

From patent US20140342379A1, “Means and Methods for Assessing Gonadal Toxicity” (BASF SE, priority 2011, published 2014)
